From patent EP0549857A1, “Antibacterial quinolone carboxylic acid derivatives” (KOREA RESEARCH INSTITUTE OF CHEMICAL TECHNOLOGY, priority 1991, dated 1993)
In brackets after ≈: the same amount, converted by molar mass. Like-named read-outs stand apart in the source and are kept apart here.

What was measured:
[1] = system: Pseudomonas aeruginosa 1771; assay: In vitro anti-bacterial activity test (MIC, two-fold agar dilution); type: cell-based
[2] = system: Staphylococcus aureus 503; assay: as above; type: cell-based
[3] = system: Escherichia coli O 55; assay: as above; type: cell-based; settings: 10⁷ CFU/mℓ, 37°C, 18 hours
[4] = system: Staphylococcus aureus SG 511; assay: as above; type: cell-based
[5] = system: Streptococcus pyogenes 77A; assay: as above; type: cell-based
[6] = system: Salmonella typhimurium; assay: as above; type: cell-based; settings: Mueller-Hinton agar, 10⁷ CFU/mℓ, 37°C, 18 hours
[7] = system: Pseudomonas aeruginosa 9027; assay: as above; type: cell-based
[8] = system: Klebsiella aerogenes 1082E; assay: as above; type: cell-based; settings: Mueller-Hinton agar, 10⁷ CFU/mℓ, 37°C, 18 hours
[9] = system: Escherichia coli DC 2; assay: as above; type: cell-based; settings: 10⁷ CFU/mℓ, 37°C, 18 hours
[10] = system: Escherichia coli DC 0; assay: as above; type: cell-based; settings: 10⁷ CFU/mℓ, 37°C, 18 hours
[11] = system: Enterobacter cloacae P99; assay: as above; type: cell-based; settings: Mueller-Hinton agar, 10⁷ CFU/mℓ, 37°C, 18 hours
[12] = system: Escherichia coli OTEM; assay: as above; type: cell-based; settings: Mueller-Hinton agar, 10⁷ CFU/mℓ, 37°C, 18 hours
[13] = system: Streptococcus pyogenes 308A; assay: as above; type: cell-based; settings: Mueller-Hinton agar, 10⁷ CFU/mℓ, 37°C, 18 hours
[14] = system: Escherichia coli 1507E; assay: as above; type: cell-based; settings: Mueller-Hinton agar, 10⁷ CFU/mℓ, 37°C, 18 hours
[15] = system: Staphylococcus aureus 285; assay: as above; type: cell-based
[16] = system: Pseudomonas aeruginosa 1592E; assay: as above; type: cell-based; settings: Mueller-Hinton agar, 10⁷ CFU/mℓ, 37°C, 18 hours
[17] = system: Klebsiella aerogenes 1522E; assay: as above; type: cell-based; settings: Mueller-Hinton agar, 10⁷ CFU/mℓ, 37°C, 18 hours
[18] = system: Enterobacter cloacae 1321E; assay: as above; type: cell-based; settings: Mueller-Hinton agar, 10⁷ CFU/mℓ, 37°C, 18 hours
[19] = system: Streptococcus faecium MD 8b; assay: as above; type: cell-based
[20] = system: Pseudomonas aeruginosa 1771M; assay: as above; type: cell-based; settings: 18 h
[21] = system: S. aureus 17740; assay: Preventive effect on the systemic infection; type: in vivo; settings: Staphylococcus aureus, 17740, in Mus musculus, S. aureus 17740 intraperitoneal infection, NMRI mice, survival on day 7, probit analysis, read-out: ED₅₀
Protocol: (§1) 10 fold of the pathogen which leads to 100% lethality were injected intraperitoneally to male and female NMRI mice weighing 18 to 20g. Immediately and after 4 hours, the dose of test compounds which was determined by two-fold serial dilution method was administered orally or subcutaneously; and on day 7, the effectiveness was evaluated in terms of ED₅₀ calculated from the number of survived mice by the probit analysis.

[22] = system: P. mirabilis; assay: Preventive effect on the systemic infection; type: in vivo; settings: Proteus mirabilis, in Mus musculus, P. mirabilis intraperitoneal infection, NMRI mice, survival on day 7, probit analysis, read-out: ED₅₀
Protocol: as §1

[23] = in vivo; settings: female, ICR, mouse
Protocol: Test compounds were administered to female ICR mice weighing 20 to 25g and on day 14, LD₅₀ was calculated from the number of survived mice by the probit analysis.

[24] = O55, Mueller-Hinton agar, read-out: MIC
[25] = Salmonella enterica, read-out: MIC
[26] = DC2, Mueller-Hinton agar, read-out: MIC
[27] = DC0, Mueller-Hinton agar, read-out: MIC
[28] = Oral Administration immediately and after 4 hours
[29] = Subcutaneous Injection immediately and after 4 hours

Molecule: 7-[6-amino-3-azabicyclo[3,3,0]oct-1(5) ene-3-yl]-5-amino-1-cyclopropyl-6,8-difluoro-1,4-dihydro-4-oxoquinoline-3-carboxylic acid [Example 10]
- MIC ([1]; Pseudomonas aeruginosa 1771, Mueller-Hinton agar, 10⁷ CFU/mℓ, 37°C, 18 hours): 1.563 µg/mL
- MIC ([2]; Staphylococcus aureus 503, Mueller-Hinton agar, 10⁷ CFU/mℓ, 37°C, 18 hours): 0.025 µg/mL
- MIC ([3]; Mueller-Hinton agar): 0.025 µg/mL
- MIC ([4]; Staphylococcus aureus SG 511, Mueller-Hinton agar, 10⁷ CFU/mℓ, 37°C, 18 hours): 0.025 µg/mL
- MIC ([5]; Streptococcus pyogenes 77A, Mueller-Hinton agar, 10⁷ CFU/mℓ, 37°C, 18 hours): 0.049 µg/mL
- MIC [6]: 0.025 µg/mL
- MIC ([7]; Pseudomonas aeruginosa 9027, Mueller-Hinton agar, 10⁷ CFU/mℓ, 37°C, 18 hours): 1.563 µg/mL
- MIC [8]: 7 ng/mL
- MIC ([9]; Mueller-Hinton agar): 0.049 µg/mL
- MIC ([10]; Mueller-Hinton agar): 0.781 µg/mL
- MIC [11]: 0.025 µg/mL
- MIC [12]: 0.049 µg/mL
- MIC [13]: 0.195 µg/mL
- MIC [14]: 0.049 µg/mL
- MIC ([15]; Staphylococcus aureus 285, Mueller-Hinton agar, 10⁷ CFU/mℓ, 37°C, 18 hours): 0.049 µg/mL
- MIC [16]: 1.563 µg/mL
- MIC [17]: 0.098 µg/mL
- MIC [18]: 0.025 µg/mL
- MIC ([19]; Streptococcus faecium MD 8b, Mueller-Hinton agar, 10⁷ CFU/mℓ, 37°C, 18 hours): 0.195 µg/mL

Molecule: O=C(O)c1cn(C2CC2)c2cc(N3CCNCC3)c(F)cc2c1=O [Ciprofloxacin, reference compound]
- MIC ([1]; Pseudomonas aeruginosa, 1771, 18 h): 0.781 µg/mL (≈ 2.36 µM)
- MIC ([2]; Staphylococcus aureus, 503, 18 h): 0.781 µg/mL (≈ 2.36 µM)
- MIC [3, 24]: 0.007 µg/mL (≈ 0.0211 µM)
- MIC ([4]; Staphylococcus aureus, SG511, 18 h): 0.781 µg/mL (≈ 2.36 µM)
- MIC ([5]; Streptococcus pyogenes, 77A, 18 h): 0.781 µg/mL (≈ 2.36 µM)
- MIC [6, 25]: 0.049 µg/mL (≈ 0.148 µM)
- MIC ([7]; Pseudomonas aeruginosa, 9027, 18 h): 0.781 µg/mL (≈ 2.36 µM)
- MIC [9, 26]: 0.195 µg/mL (≈ 0.589 µM)
- MIC [10, 27]: 0.391 µg/mL (≈ 1.18 µM)
- MIC [20]: 0.195 µg/mL (≈ 0.589 µM)
- MIC ([13]; read-out: MIC): 3.12 µg/mL (≈ 9.43 µM)
- ED50 [21, 28]: > 200 mg/kg
- ED50 [21, 29]: 132 mg/kg
- ED50 [22, 28]: 0.92 mg/kg
- ED50 [22, 29]: 0.28 mg/kg
- MIC ([15]; Staphylococcus aureus, 285, 18 h): 0.781 µg/mL (≈ 2.36 µM)
- MIC ([16]; read-out: MIC): 0.391 µg/mL (≈ 1.18 µM)
- MIC ([19]; Enterococcus faecium, MD8B, 18 h): 0.781 µg/mL (≈ 2.36 µM)

Molecule: CNC1CCC2=C1CN(c1c(F)cc3c(=O)c(C(=O)O)cn(C4CC4)c3c1Cl)C2 (centres unmarked) [Example 4, 7-[6-methylamino-3-azabicyclo[3,3,0]oct-1(5)ene-3-yl]-8-chloro-1-cyclopropyl-6-fluoro-1,4-dihydro-4-oxoquinoline-3-carboxylic acid]
- MIC ([1]; Pseudomonas aeruginosa 1771, Mueller-Hinton agar, 10⁷ CFU/mℓ, 37°C, 18 hours, read-out: MIC): 3.12 µg/mL (≈ 7.48 µM)
- MIC ([2]; Staphylococcus aureus 503, Mueller-Hinton agar, 10⁷ CFU/mℓ, 37°C, 18 hours, read-out: MIC): 0.025 µg/mL (≈ 0.0598 µM)
- MIC [3, 24]: 0.025 µg/mL (≈ 0.0598 µM)
- MIC ([4]; SG511, Staphylococcus aureus SG 511, Mueller-Hinton agar, 10⁷ CFU/mℓ, 37°C, 18 hours, read-out: MIC): 0.025 µg/mL (≈ 0.0598 µM)
- MIC ([5]; Streptococcus pyogenes 77A, Mueller-Hinton agar, 10⁷ CFU/mℓ, 37°C, 18 hours, read-out: MIC): 0.025 µg/mL (≈ 0.0598 µM)
- MIC [6, 25]: 0.049 µg/mL (≈ 0.117 µM)
- MIC ([7]; Pseudomonas aeruginosa 9027, Mueller-Hinton agar, 10⁷ CFU/mℓ, 37°C, 18 hours, read-out: MIC): 3.12 µg/mL (≈ 7.48 µM)
- MIC ([8]; read-out: MIC): < 2 ng/mL
- MIC [9, 26]: 0.025 µg/mL (≈ 0.0598 µM)
- MIC [10, 27]: 0.781 µg/mL (≈ 1.87 µM)
- MIC [20]: 0.781 µg/mL (≈ 1.87 µM)
- MIC ([11]; read-out: MIC): 0.098 µg/mL (≈ 0.235 µM)
- MIC ([12]; read-out: MIC): 0.098 µg/mL (≈ 0.235 µM)
- MIC ([13]; read-out: MIC): 0.195 µg/mL (≈ 0.467 µM)
- MIC ([14]; read-out: MIC): 0.098 µg/mL (≈ 0.235 µM)
- MIC ([15]; Staphylococcus aureus 285, Mueller-Hinton agar, 10⁷ CFU/mℓ, 37°C, 18 hours, read-out: MIC): 0.049 µg/mL (≈ 0.117 µM)
- MIC ([16]; read-out: MIC): 3.12 µg/mL (≈ 7.48 µM)
- MIC ([17]; read-out: MIC): 0.195 µg/mL (≈ 0.467 µM)
- MIC ([18]; read-out: MIC): 0.098 µg/mL (≈ 0.235 µM)
- MIC ([19]; Enterococcus faecium, MD8B, Streptococcus faecium MD 8b, Mueller-Hinton agar, 10⁷ CFU/mℓ, 37°C, 18 hours, read-out: MIC): 0.049 µg/mL (≈ 0.117 µM)

Molecule: COc1c(N2CC3=C(C2)C(N)CC3)c(F)cc2c(=O)c(C(=O)O)cn(C3CC3)c12 (centres unmarked) [Example 6, 7-[6-amino-3-azabicyclo[3,3,0]oct-1(5)ene-3-yl]-1-cyclopropyl-6-fluoro-8-methoxy-1,4-dihydro-4-oxoquinoline-3-carboxylic acid]
- LD50 at 14 day ([23]; ip): 755 mg/kg
- LD50 at 14 day ([23]; po): 4300 mg/kg
